Reference: patent US20040106793A1, “Oxazoles for treating cytokine mediated diseases” (SmithKline Beecham Corporation, priority 1993, published 2004)

System: IL-1 produced by human monocytes
Test: Interleukin 1 (IL-1) production by LPS-stimulated human monocytes
Type: cell-based
Conditions: human peripheral blood monocytes, compound 1 h before lipopolysaccharide (50 ng/ml), 24 h at 37° C.; IL-1 in supernatant by bioassay (EL-4) or ELISA
Experimental: Human peripheral blood monocytes were isolated and purified from either fresh blood preparations from volunteer donors, or from blood bank buffy coats, according to the procedure of Colotta et al, J Immunol, 132, 936 (1984). These monocytes (1×10^6) were plated in 24-well plates at a concentration of 1-2 million/ml per well. The cells were allowed to adhere for 2 hours, after which time non-adherent cells were removed by gentle washing. Test compounds were then added to the cells for 1 h before the addition of lipopolysaccharide (50 ng/ml), and the cultures were incubated at 37° C. for an additional 24 h. At the end of this period, culture supernatants were removed and clarified of cells and all debris. Culture supernatants were then immediately assayed for IL-1 biological activity, either by the method of Simon et al., J. Immunol. Methods, 84, 85, (1985) (based on ability of IL-1 to stimulate a Interleukin 2 producing cell line (EL-4) to secrete IL-2, in concert with A23187 ionophore) or the method of Lee et al., J. ImmunoTherapy, 6 (1), 1-12 (1990) (ELISA assay).

| Compound | inhibition of in vitro IL-1 produced by human monocytes |
| --- | --- |
| COc1cccc(-c2oc(C)nc2-c2ccncc2)c1 [Example 1, 5-(3-Methoxyphenyl)-2-methyl-4-(4-pyridyl)oxazole] | inhibitors |
| Cc1nc(-c2ccncc2)c(-c2ccc(F)cc2)o1 [Example 2, 5-(4-Fluorophenyl)-2-methyl-4-(4-pyridyl)oxazole] | inhibitors |
| Fc1ccc(-c2ncoc2-c2ccncc2)cc1 [Example 7, 4-(4-Fluorophenyl)-5-(4-pyridyl)oxazole] | inhibitors |
